Results reported in patent US9359371B2, “Bicyclic substituted pyrimidine compounds” (Xuanzhu Pharma Co., Ltd., priority 2012, dated 2016).
Read-outs that look alike come from different tables or passages of the source.

Key:
PDE-5A enzyme = PDE-5A enzyme (Homo sapiens (Human), UniProt O76074); experiment: Caliper Mobility-Shift PDE-5A Assay; assay type: biochemical; conditions: Table 1; Avanafil value is the control
Procedure: Experiment 1: Measurement of Enzymatic Activity In Vitro
PDE-5A enzyme: humanized PDE-5 enzyme, SignalChem, Cat#93-31G-20.
Method: enzyme assay, Caliper Mobility-Shift PDE-5A Assay:
The test compound was accurately weighed, dissolved in DMSO, mixed thoroughly and formulated into 10 mM.
(§1) The maximum final concentration of the compound was 10 μM. The plate was incubated at 30° C. for 1 h, and 20 μL of 70 μM EDTA was then added to stop the reaction. 26 μL of solution of each well was transferred to a 384-well plate. The conversion was read on a EZ reader II. The inhibition rate was calculated by the formula below, and used to calculate IC50 by Prism 5.0 Inhibition rate=[Conversion (ZPE)−Conversion (sample)]×100/[Conversion (ZPE)−Conversion (HPE)]
Note: HPE: control without enzyme; ZPE: control without a test compound

PDE-11 = PDE-11 (Homo sapiens (Human), UniProt Q9HCR9); experiment: Caliper Mobility-Shift PDE-11 Assay; assay type: biochemical; conditions: Table 4; maximum final concentration 10 μM
Sequence of PDE-11 (Q9HCR9 whole entry): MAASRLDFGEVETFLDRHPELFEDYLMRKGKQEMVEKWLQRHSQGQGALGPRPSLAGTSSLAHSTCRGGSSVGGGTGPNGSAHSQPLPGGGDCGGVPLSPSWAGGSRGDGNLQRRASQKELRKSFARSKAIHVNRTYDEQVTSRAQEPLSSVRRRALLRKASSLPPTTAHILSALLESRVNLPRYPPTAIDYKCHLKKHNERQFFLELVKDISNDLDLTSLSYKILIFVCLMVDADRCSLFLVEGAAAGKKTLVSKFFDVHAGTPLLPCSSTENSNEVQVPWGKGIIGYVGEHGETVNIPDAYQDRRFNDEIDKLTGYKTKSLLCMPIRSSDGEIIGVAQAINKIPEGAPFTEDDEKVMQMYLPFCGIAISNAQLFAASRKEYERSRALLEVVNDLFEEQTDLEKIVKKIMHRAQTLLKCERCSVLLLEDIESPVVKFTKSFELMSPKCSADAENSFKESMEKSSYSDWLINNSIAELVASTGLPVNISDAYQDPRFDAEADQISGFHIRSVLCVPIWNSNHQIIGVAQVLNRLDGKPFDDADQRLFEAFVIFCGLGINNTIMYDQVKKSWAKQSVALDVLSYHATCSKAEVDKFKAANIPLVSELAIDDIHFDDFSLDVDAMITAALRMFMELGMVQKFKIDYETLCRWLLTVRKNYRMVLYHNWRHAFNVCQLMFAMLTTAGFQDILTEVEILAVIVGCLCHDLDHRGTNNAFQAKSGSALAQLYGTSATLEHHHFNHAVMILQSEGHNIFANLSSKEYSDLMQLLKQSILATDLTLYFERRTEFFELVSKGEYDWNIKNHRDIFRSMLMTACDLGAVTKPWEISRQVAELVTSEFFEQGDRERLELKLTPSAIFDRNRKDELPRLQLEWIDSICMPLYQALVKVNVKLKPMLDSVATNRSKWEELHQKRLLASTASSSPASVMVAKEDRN
Procedure: Experiment 4: Measurement of Pharmacological Activity on PDE-11 Enzyme In Vitro
Method: enzyme assay, Caliper Mobility-Shift PDE-11 Assay
The test compound was accurately weighed, dissolved in DMSO, mixed thoroughly and formulated into 10 mM. The above stock solution was diluted to a concentration of 0.5 mM with DMSO, and then was gradiently diluted by a dilution factor of 3.162, resulting in 11 concentrations in total.
as §1, with “To a 96-well plate, 20 μL of 10 μM FL-cGMP as the substrate was added; then 1 μL solution of the compound in DMSO or DMSO solution without compound was added; and then 29 μL of 0.28 ng/μL PDE-11 enzyme buffer (100 mM Hepes pH 7.5, 5 mM MgCl2, 0.002% Brij-35) was added. The maximum” for “The maximum”, “II. The Inhibition rate was” for “II. The inhibition rate was”
Note: HPE: control without enzyme; ZPE: control without compound

[1] = biological target: PDE-5 enzyme (human blood platelets) (Homo sapiens (Human), UniProt O76074); experiment: PDE-5 enzyme assay, [3H]cGMP; assay type: biochemical
hERG channel = hERG channel (Homo sapiens (Human), UniProt Q12809); experiment: hERG potassium channel whole-cell patch clamp on CHO-K1 cell line
Sequence of hERG channel (Q12809 whole entry): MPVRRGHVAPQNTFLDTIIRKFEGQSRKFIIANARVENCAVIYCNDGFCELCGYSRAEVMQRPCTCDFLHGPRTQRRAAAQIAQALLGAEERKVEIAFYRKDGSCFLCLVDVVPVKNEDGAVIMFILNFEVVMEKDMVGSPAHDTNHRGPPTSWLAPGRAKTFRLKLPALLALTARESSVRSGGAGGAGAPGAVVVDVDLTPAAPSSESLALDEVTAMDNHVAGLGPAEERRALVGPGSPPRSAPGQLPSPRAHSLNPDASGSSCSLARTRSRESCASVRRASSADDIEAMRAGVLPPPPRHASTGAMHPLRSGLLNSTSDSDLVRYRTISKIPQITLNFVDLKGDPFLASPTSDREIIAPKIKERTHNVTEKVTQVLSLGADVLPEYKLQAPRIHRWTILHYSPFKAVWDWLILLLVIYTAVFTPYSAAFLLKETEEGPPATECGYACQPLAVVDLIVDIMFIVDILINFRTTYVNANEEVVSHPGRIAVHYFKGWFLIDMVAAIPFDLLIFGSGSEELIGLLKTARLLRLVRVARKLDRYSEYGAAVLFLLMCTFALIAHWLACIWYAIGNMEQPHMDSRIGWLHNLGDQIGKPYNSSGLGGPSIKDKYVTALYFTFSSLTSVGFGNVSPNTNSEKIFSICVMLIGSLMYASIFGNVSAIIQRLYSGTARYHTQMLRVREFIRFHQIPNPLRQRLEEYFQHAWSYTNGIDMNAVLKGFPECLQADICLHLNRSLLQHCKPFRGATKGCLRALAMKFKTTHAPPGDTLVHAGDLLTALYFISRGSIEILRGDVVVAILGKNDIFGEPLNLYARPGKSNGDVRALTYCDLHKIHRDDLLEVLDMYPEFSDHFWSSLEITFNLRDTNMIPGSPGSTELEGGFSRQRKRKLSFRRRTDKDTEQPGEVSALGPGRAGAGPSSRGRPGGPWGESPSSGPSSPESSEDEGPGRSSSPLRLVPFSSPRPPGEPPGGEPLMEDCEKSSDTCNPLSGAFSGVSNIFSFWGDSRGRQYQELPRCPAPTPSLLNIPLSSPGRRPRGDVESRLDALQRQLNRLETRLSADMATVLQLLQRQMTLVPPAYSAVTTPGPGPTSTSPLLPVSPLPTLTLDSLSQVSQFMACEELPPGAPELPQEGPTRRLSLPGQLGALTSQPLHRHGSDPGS
Description: Experiment 8: Detection of Inhibitory Effect of the Compounds of the Present Invention on hERG Potassium Channel by the Patch Clamp Method
Rapidly activated human delayed rectifying outward potassium current (IKr) is mainly mediated by hERG ion channel and is involved in repolarization of human cardiac muscle cell. Clinically, blocking of the current by a drug is the main cause of QT interval prolongation syndrome, acute arrhythmia and even sudden death. The main purpose of the experiment is to test the blocking effect of the compounds of the present invention on hERG channel, and to determine the half maximal inhibitory concentration (IC50) of the compounds.
The experiment mainly included: (1) recording hERG current by patch clamp technique on CHO-K1 cell line which stably expressed hERG channel; (2) calculating the Inhibition rate of each concentration according to hERG tail current; (3) testing each compound at 5 concentrations to calculate IC50; (4) testing 2 cells at each concentration; (5) a positive control.
The structures and synthesis of Compound 88 (WO-88) and Compound 93 (WO-93) as disclosed in WO200119802A were described in Example 55 and Example 56.
Drug for positive control: Amitriptyline hydrochloride (Sigma-Aldrich, an international standard blocker for hERG channel)
Pippette Solution (in mM): KCl 120, KOH 31.25, CaCl2 5.374, MgCl2 1.75, Ethylene glycol-bis(β-aminoethyl ether)-N,N,N′,N′-tetraacetic acid (EGTA) 10, HEPES 10, Na2-ATP 4, adjusted to a pH of 7.2 with 1N potassium hydroxide; adjusted to an osmotic pressure of 280-290 mOsm; preserved at −20° C. after filtration.
Preparation of compounds: Some of the compounds of the present invention and Amitriptyline hydrochloride as the positive control drug were separately dissolved in 100% DMSO (Merck, 61850125001730), then prepared into stock solutions of 30 mM. Before the experiment, the above stock solutions were diluted with DMSO to a concentration of 1000-fold of the experimental concentration. Then the diluted solutions were further diluted with extracellular solution by 1:1000 to the required experimental concentration. The final concentration of DMSO in the extracellular solution was kept as 0.1%.
Stable cell line CHO-hERG was purchased from AVIVA Company. The hERG current on the cell line was recorded. For the purpose of quality control, the smallest seal resistance was no less than 500 MΩ, and the hERG current was no less than 0.4 nA.
The hERG current was recorded by a whole-cell patch clamp technique. Cell suspension was added into a 35-mm culture dish. The culture dish was placed on the objective table of an inverted microscope. Upon cell attachment, perfusion was conducted with the extracellular solution at a flow rate of 1-2 mL/min.
Glass microelectrode with the pipette tip resistance of 2-5 MΩ was controlled by a microelectrode puller via a two-step process. After the whole-cell record was set up, the clamp potential was kept at −80 mV. The cell was depolarized to +60 mV by applying a voltage stimulus, and then repolarized to −50 mV to obtain the hERG tail current. Recordation was conducted after the current was stable. The extracellular perfusion was started from the lowest concentration, with 5-10 min for each concentration until the current was stable, and then conducted with the next concentration.
Stimulus payment and signal collection were performed by A/D-D/A conversion using Digidata 1440 (Molecular Devices) and pCLAMP software (Version 10.2, Molecular Devices). Signal amplification was performed on a patch clamp amplifier (Multiclamp 700B, Molecular Devices), with a filter of 1 KHz. Further data analysis and curve fitting were conducted by Clampfit (version 10.2, Molecular Devices) and Prism. The data were presented as mean value±standard deviation.
In the process of data analysis, the peak value and the baseline of the tail current were corrected when determining the blocking effect on hERG.

[2] = Pharmacokinetics (PK) in SD rats; assay type: in vivo; conditions: rat, 1 mg/kg; for AUC(0-inf) / Cmax / Tmax / half-life / bioavailability: SD, plasma; for bioavailability: read-out: F % (absolute bioavailability)
Procedure: Experiment 9: Assay of Pharmacokinetics (PK) of the Compounds of the Present Invention in SD Rats
Compound 1-54 of the present invention were prepared by the methods described in Example 1 to Example 54 of the present invention.
The control drug Avanafil, of which the structure was stated above, was purchased commercially.
Collection of the rat's blood: The animal was fixed. The tail was warmed with a water bath 10 min before the collection time. About 200 μL of whole blood was collected from the tail vein. The collected blood was collected into anticoagulant tubes containing heparin sodium. The blood samples were centrifuged at 4° C. by 8000 rpm for 6 min to give the plasma samples, which should be prepared within 30 min after the collection of blood. The plasma samples were stored in a freezer of −80° C. until test.
The result output by Analyst 1.5.1 of AB Company was used as the concentration of the tested sample (plasma sample). The mean value, standard deviation, variable coefficient and the like were calculated by Microsoft Excel (except for the result directly output by Analyst 1.5.1). Parameters of PK were calculated by Pharsight Phoenix 6.2 software. Formula for calculating oral bioavailability: F %=AUCinf−po*Doseiv/AUCinf−iv*Dosepo.

bovine retinal PDE-6 [3] = biological target: bovine retinal PDE-6 (Bos taurus (Bovine), UniProt P11541+P23439); experiment: PDE-6 enzyme assay, [3H]cGMP; assay type: biochemical
Sequence of bovine retinal PDE-6 (Bos taurus (Bovine), UniProt P11541+P23439) (P11541 whole entry, looked up): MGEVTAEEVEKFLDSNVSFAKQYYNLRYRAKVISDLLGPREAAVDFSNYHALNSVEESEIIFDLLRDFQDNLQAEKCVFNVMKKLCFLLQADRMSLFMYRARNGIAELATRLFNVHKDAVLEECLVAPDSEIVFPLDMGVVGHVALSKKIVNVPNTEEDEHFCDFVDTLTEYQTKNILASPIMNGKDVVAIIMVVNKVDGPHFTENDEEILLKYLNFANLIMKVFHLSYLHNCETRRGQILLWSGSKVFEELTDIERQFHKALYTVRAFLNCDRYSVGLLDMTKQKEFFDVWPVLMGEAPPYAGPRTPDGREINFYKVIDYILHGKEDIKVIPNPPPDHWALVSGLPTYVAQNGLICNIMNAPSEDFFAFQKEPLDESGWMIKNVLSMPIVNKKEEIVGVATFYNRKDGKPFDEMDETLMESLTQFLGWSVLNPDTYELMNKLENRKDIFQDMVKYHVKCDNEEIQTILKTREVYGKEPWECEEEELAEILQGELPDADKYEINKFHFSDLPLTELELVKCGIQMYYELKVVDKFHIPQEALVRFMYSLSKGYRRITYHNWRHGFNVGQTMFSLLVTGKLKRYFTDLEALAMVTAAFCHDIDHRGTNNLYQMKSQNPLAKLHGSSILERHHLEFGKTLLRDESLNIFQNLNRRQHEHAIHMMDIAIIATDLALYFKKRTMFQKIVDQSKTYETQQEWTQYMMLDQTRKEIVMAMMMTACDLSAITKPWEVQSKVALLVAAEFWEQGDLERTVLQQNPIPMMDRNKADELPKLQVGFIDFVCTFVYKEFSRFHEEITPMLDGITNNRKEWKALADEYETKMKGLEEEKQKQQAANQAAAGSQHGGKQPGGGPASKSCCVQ
Sequence of bovine retinal PDE-6 (Bos taurus (Bovine), UniProt P11541+P23439) (P23439 whole entry, looked up): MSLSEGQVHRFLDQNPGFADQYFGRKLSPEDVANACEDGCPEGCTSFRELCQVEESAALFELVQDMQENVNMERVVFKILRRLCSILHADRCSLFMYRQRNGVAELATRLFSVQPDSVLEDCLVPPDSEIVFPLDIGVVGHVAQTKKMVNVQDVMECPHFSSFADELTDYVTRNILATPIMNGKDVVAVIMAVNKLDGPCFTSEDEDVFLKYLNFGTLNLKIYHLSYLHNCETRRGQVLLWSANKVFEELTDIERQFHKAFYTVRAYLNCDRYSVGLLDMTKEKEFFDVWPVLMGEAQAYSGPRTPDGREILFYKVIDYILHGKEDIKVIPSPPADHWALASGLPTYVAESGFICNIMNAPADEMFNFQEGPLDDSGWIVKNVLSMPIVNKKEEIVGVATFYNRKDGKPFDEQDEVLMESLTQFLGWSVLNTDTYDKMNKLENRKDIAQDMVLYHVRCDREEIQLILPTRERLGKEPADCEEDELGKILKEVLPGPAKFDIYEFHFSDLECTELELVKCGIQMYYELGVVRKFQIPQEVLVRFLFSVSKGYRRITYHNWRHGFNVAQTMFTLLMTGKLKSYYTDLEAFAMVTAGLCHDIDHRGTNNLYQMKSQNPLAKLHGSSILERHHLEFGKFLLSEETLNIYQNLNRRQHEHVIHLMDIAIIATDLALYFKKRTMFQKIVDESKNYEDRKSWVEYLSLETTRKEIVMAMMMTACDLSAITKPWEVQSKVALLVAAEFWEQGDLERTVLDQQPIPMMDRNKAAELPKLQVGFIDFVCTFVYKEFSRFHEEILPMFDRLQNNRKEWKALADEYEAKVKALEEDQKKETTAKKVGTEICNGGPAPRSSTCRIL
Procedure: (§2) Experiment 3: Measurement of Enzyme Activity on PDE-6 Enzyme In Vitro
(§3) Source of enzyme: PDE-6, bovine retinal PDE-6
(§4) Method: The test compound or solvent was incubated at 25° C. for 15 min with enzyme solution (0.2 μg/mL) in Tris-HCl buffer of pH 7.5. 100 μM cGMP and 0.03 μM [^3H] cGMP were then added to activate the reaction. The mixture was incubated for 20 min. The reaction was stopped at 100° C. By addition of snake venom nucleotidase, the product [^3H] GMP was converted into [^3H] Guanosine, which was separated with AG1-X2 resin. The amount of [^3H] Guanosine was measured.

bovine retinal PDE-6 [4] = experiment: PDE-6 enzyme assay, [3H]cGMP; assay type: biochemical; conditions: IC50 for PDE-6/IC50 for PDE-5
Procedure: as §2, §3, §4

[5] = Table 2, human blood platelet enzyme, read-out: IC50 on PDE-5
[6] = po, intragastric administration

| Structure (SMILES) | IC50 (PDE-5A enzyme) | IC50 (PDE-11) | AUC(0-inf) ([2]; intravenous injection) | half-life ([2]; intravenous injection) | Cl_obs ([2]; intravenous injection) | Vss_obs ([2]; intravenous injection) | also measured |
| --- | --- | --- | --- | --- | --- | --- | --- |
| COc1ccc(CNc2nc(N3CC4CC4C3)ncc2C(=O)N[C@H]2CCCCNC2=O)cc1Cl (stereo partly drawn) [Compound 8, 2-(3-azabicyclo[3.1.0]hexan-3-yl)-4-((3-chloro-4-methoxybenzyl)amino)-N-((s)-caprolactam-3-yl)pyrimidine-5-formamide] | 13.2 nM | > 10000 nM |  |  |  |  |  |
| COc1ccc(CNc2nc(N3CC4CC4C3)ncc2C(=O)NCc2cnc(C)cn2)cc1Cl (stereo not drawn) [Compound 4, 2-(3-azabicyclo[3.1.0]hexan-3-yl)-4-((3-chloro-4-methoxybenzyl)amino)-N-((5-methylpyrazine-2-yl)methyl)pyrimidine-5-formamide] | 4.63 nM | > 10000 nM |  |  |  |  |  |
| COc1ccc(CNc2nc(N3CC4CC4C3)ncc2C(=O)NCc2ncccn2)cc1Cl (stereo not drawn) [Compound 1, 2-(3-azabicyclo[3.1.0]hexan-3-yl)-4-((3-chloro-4-methoxybenzyl)amino)-N-(pyrimidin-2-ylmethyl)pyrimidine-5-formamide] | 6.04 nM | > 10000 nM |  |  |  |  | IC50 [1, 5]: 6.04 nM |
| COc1ccc(CNc2nc(N3Cc4cccnc4C3)ncc2C(=O)N[C@H]2CC[C@H](O)CC2)cc1Cl [WO-93, N-(trans-4-hydroxycyclohexan-1-yl)-4-((3-chloro-4-methoxybenzyl)amino)-2-(5H-pyrrolo[3,4-b]pyridin-6(7H)yl)-5-pyrimidine formamide, reference compound] |  |  | 709 ng·h/mL | 2.6 h | 25 mL/min/kg | 5.0 L/kg | IC50 (hERG channel): > 30000 nM; AUC(0-inf) [2, 6]: 89 ng·h/mL; Cmax [2, 6]: 15 ng/mL; Tmax [2, 6]: 4 h; half-life [2, 6]: 2.8 h; bioavailability [2, 6]: 16% |
| COc1ccc(CNc2nc(N3CC4CC4C3)ncc2C(=O)NC2CCCCCC2)cc1Cl (stereo not drawn) [Compound 9, 2-(3-azabicyclo[3.1.0]hexan-3-yl)-4-((3-chloro-4-methoxybenzyl)amino)-N-cycloheptanylpyrimidine-5-formamide] | 23.2 nM | > 10000 nM |  |  |  |  |  |
| COc1ccc(CNc2nc(N3CC4CC4C3)ncc2C(=O)NCCN2CCOCC2)cc1Cl (stereo not drawn) [Compound 6, 2-(3-azabicyclo[3.1.0]hexan-3-yl)-4-((3-chloro-4-methoxybenzyl)amino)-N-(2-morpholinylethyl)pyrimidine-5-formamide] | 4.25 nM | > 10000 nM |  |  |  |  |  |
| COc1ccc(CNc2nc(N3CCC4(CC4)C3)ncc2C(=O)NCCN2CCN(C)CC2)cc1Cl [Compound 46, 4-((3-chloro-4-methoxybenzyl)amino)-N-(2-(4-methylpiperazin-1-yl)ethyl)-2-(5-azaspiro[2.4]heptan-5-yl)pyrimidine-5-formamide] | 14.9 nM | > 10000 nM | 214 ng·h/mL | 13.9 h | 79 mL/min/kg | 86.40 L/kg | IC50 [1, 5]: 0.31 nM; IC50 ([1]; Table 4-1, read-out: PDE-5 (IC50 nM)): 0.31 nM; IC50 (bovine retinal PDE-6 [3]; Table 3, read-out: IC50 on PDE-6): 310 nM; IC50 (bovine retinal PDE-6 [3]; Table 4-1, read-out: PDE-6 (IC50 nM)): 310 nM; Selectivity (PDE-6/PDE-5) (bovine retinal PDE-6 [4]): 1000 |
| COc1ccc(CNc2nc(N3CC4CC4C3)ncc2C(=O)NCc2ccc(F)cc2)cc1Cl (stereo not drawn) [Compound 5, 2-(3-azabicyclo[3.1.0]hexan-3-yl)-4-((3-chloro-4-methoxybenzyl)amino)-N-(4-fluorobenzyl)pyrimidine-5-formamide] | 17.4 nM | > 10000 nM |  |  |  |  |  |
| COc1ccc(CNc2nc(N3CCC[C@H]3CO)ncc2C(=O)N[C@H]2CC[C@H](O)CC2)cc1Cl [WO-88, N-((trans)-4-hydroxylcyclohexan-1-yl)-4-((3-chloro-4-methoxybenzyl)amino)-2-((s)-2-(hydroxymethyl)tetrahydropyrrole-1-yl)-5-pyrimidine formamide, reference compound] |  |  | 347 ng·h/mL | 1 h | 48.3 mL/min/kg | 3.6 L/kg | IC50 [1]: 0.59 nM; IC50 (hERG channel): > 30000 nM; AUC(0-inf) [2, 6]: 63 ng·h/mL; Cmax [2, 6]: 29 ng/mL; Tmax [2, 6]: 0.5 h; half-life [2, 6]: 2.8 h; bioavailability [2, 6]: 23% |
